US20050288215A1, “Inhibition of nuclear export as a treatment for cardiac hypertrophy and heart failure” (priority 2004, published 2005)

Legend:
Assay type in all cases: cell-based
[1] = tested on: neonatal rat ventricular myocytes (NRVM); test: Cell volume measurements by Coulter Counter; settings: 48 hours
Method: (§1) Neonatal rat ventricular myocyte (NRVM) preparation and culture. Hearts were dissected from 1 to 3 day-old Sprague-Dawley rats, minced, and digested with collagenase (Worthington; […]) and pancreatin (Sigma; 1× activity equivalent) in 1× Ads buffer (NaCl [116 mM], HEPES [20 mM; pH 7.4], NaH2PO4 [4.8 mM], KCl [5 mM], MgSO4 [[…]], and glucose [5.5 mM]). Cells were centrifuged through a step gradient of Percoll (Pharmacia) to separate myocytes from fibroblasts, and the myocyte pool was further enriched by pre-plating for 2 hours to remove adherent fibroblasts from the cell population. Cells were cultured overnight on dishes coated with gelatin (Sigma; 0.2%) in DMEM containing fetal bovine serum (FBS) (10%), L-glutamine (2 mM), and penicillin-streptomycin. After overnight culture, cells were washed with serum-free medium and maintained in DMEM supplemented with Neutridoma-SP (Roche Applied Science), which contains albumin, insulin, transferrin, and other defined organic and inorganic compounds, at either 0.1% or 0.3% v/v, as indicated.
Cell volume measurements. Three-dimensional measurements of isolates NRVM were conducted using a Coulter Model Z2 instrument (Beckman), as previously described (Said et al., 2004). […] Cell volumes are expressed as […].

[2] = tested on: neonatal rat ventricular myocytes (NRVM); test: ANF competition ELISA, secreted ANF in culture supernatants; set-up: ANF induction (secreted ANF in culture supernatants): dose or concentration left out as unconfirmed; settings: 48 hrs
Method: as §1, with “After overnight culture, cells were washed with serum-free medium and maintained in DMEM supplemented with Neutridoma-SP (Roche Applied Science), which contains albumin, insulin, transferrin, and other defined organic and inorganic compounds, at either 0.1% or 0.3% v/v, as indicated.” left out
(§2) ANF competition ELISA and total protein measurements. […] Wells were washed 5× with TBS-T and exposed to TMB substrate (Kirkegaard & Perry; […]), which provides a colorimetric readout, for 30 minutes at room temperature. Reactions were terminated with H2SO4 (2N, […]) and absorbance at 450 nm detected using a Fusion Plate Reader (Perkin Elmer/Packard). […] Color development was allowed to proceed for 30 minutes prior to being measured at 595 nm using a micro-titer plate spectrophotometer (Molecular Devices).

[3] = tested on: neonatal rat ventricular myocytes (NRVM); test: α- and β-myosin heavy chain cytoblot assay
Method: as §1
α- and β-myosin heavy chain cytoblot assay. […] Cells were washed three times with PBS containing BSA (1%), luminol (Pierce) was added, and luminescence detected using a Fusion Plate Reader (Perkin Elmer/Packard).

[4] = tested on: neonatal rat ventricular myocytes (NRVM); test: Toxicity: adenylate kinase (AK) release into culture medium; settings: 48 hours, LMB 18.5 nM (FIG. 6)
Method: as §1, with “After overnight culture, cells were washed with serum-free medium and maintained in DMEM supplemented with Neutridoma-SP (Roche Applied Science), which contains albumin, insulin, transferrin, and other defined organic and inorganic compounds, at either 0.1% or 0.3% v/v, as indicated.” left out
Toxicity measurements. Adenylate kinase (AK) was measured in culture supernatants employing the bioluminescent ToxiLight kit (BioWhittaker) according to the manufacturer's instructions. Assays were run in a 96-well format and values measured using a Fusion Plate Reader (Perkin Elmer/Packard). Cell viability was also assessed using the LIVE/DEAD Viability/Cytotoxicity Kit (Molecular Probes). […]

[5] = tested on: neonatal rat ventricular myocytes (NRVM); test: SERCA2 immunoblot analysis; settings: 48 hours, LMB 18.5 nM (FIG. 8)
Method: as §1
SERCA and MCIP immunoblot analysis. […] Protein concentrations were determined by Bradford Assay (Bio-Rad) and […] total protein resolved by SDS-PAGE with gradient gels (Invitrogen; 4%-20% polyacrylamide). […]

[6] = tested on: neonatal rat ventricular myocytes (NRVM); test: Total cellular protein by Bradford assay
Method: as §1, with “After overnight culture, cells were washed with serum-free medium and maintained in DMEM supplemented with Neutridoma-SP (Roche Applied Science), which contains albumin, insulin, transferrin, and other defined organic and inorganic compounds, at either 0.1% or 0.3% v/v, as indicated.” left out
as §2

[7] = tested on: neonatal rat ventricular myocytes (NRVM); test: Viability: calcein AM / ethidium staining (LIVE/DEAD kit); set-up: key to Calcein Fluorescence / Ethidium Fluorescence: +, fluorescence; −, no fluorescence; settings: for Calcein Fluorescence / Ethidium Fluorescence: PE (20 μM), 48 hrs
Method: as §1
Toxicity measurements. Adenylate kinase (AK) was measured in culture supernatants employing the bioluminescent ToxiLight kit (BioWhittaker) according to the manufacturer's instructions. Assays were run in a 96-well format and values measured using a Fusion Plate Reader (Perkin Elmer/Packard). Cell viability was also assessed using the LIVE/DEAD Viability/Cytotoxicity Kit (Molecular Probes). This kit employs calcein AM fluorescent dye, which is retained by viable cells, and an ethidium homodimer, which only enters cells with damaged membranes.

[8] = tested on: neonatal rat ventricular myocytes (NRVM); test: RNA dot blot analysis of fetal cardiac gene transcripts; settings: 48 hrs, LMB 18.5 nM (FIG. 2)
Method: as §1
RNA analysis. NRVM were plated on gelatin-coated 10 cm dishes (2×10^6 cells/dish). Following the indicated treatments, RNA was isolated from cardiomyocytes using Trizol Reagent (Gibco/BRL). Total RNA ([…]) was vacuum blotted onto nitrocellulose membranes (Bio-Rad) using a 96-well format dot blotter (Bio-Rad). Membranes were blocked in 4×SSC containing SDS (1%), 5× Denhardt's Reagent, sodium pyrophosphate (0.05%), and […] sonicated salmon sperm DNA (4 hrs at […]) and incubated with ^32P-end-labeled oligonucleotide probes (1×10^6 cpm/ml; 14 hrs at […]). Sequences of oligonucleotides were as follows: ANF, 5′-[…]-3; a-SK-actin 5′-[…]-3′; a-MHC 5′-[…]-3′; b-MHC 5′-[…]-3′; GAPDH 5′-[…]-3′). Blots were washed twice with 0.5×SSC containing SDS (0.1%; 10 minutes at […]) and analyzed by autoradiography.

[9] = tested on: neonatal rat ventricular myocytes (NRVM); test: ANF protein by indirect immunofluorescence (perinuclear ANF); set-up: key to Perinuclear ANF: +, presence; −, absence; settings: for Perinuclear ANF: LMB 18.5 nM
Method: as §1
Indirect immunofluorescence. NRVM (2.5×105) were plated on gelatin-coated 6-well dishes. Following the indicated treatments, cells were fixed with formalin (10%) in PBS, permeablized and blocked with PBS containing NP-40 (0.1%) and bovine serum albumin (BSA) (3%), and incubated in the same solution, but with primary antibodies for sarcomeric α-actinin (Sigma, mouse monoclonal; 1:200 dilution) or atrial natriuretic factor (ANF) (Peninsula Labs, rabbit polyclonal; 1:200 dilution). Cells were washed five times with PBS and incubated with fluorescein- or cy3-conjugated secondary antibodies (Jackson Labs, goat polyclonal; 1:200 dilution), followed by a brief incubation with Hoechst dye (Molecular Probes). Cells were washed five times in PBS, one time with water and sequentially covered with mounting solution (Molecular Probes, SlowFade) and glass coverslips. Proteins were visualized with an inverted fluorescence microscope (Olympus, BH-2) at 40× magnification and images captured using a digital camera (Roper Scientific, Photometrics).

[10] = tested on: neonatal rat ventricular myocytes (NRVM); test: Sarcomere organization, α-actinin indirect immunofluorescence; set-up: key: +, organized sarcomeres; −, disorganized sarcomeres; settings: 48 hrs, LMB 18.5 nM
Method: as §1
Indirect immunofluorescence. NRVM (2.5×105) were plated on gelatin-coated 6-well dishes. […] Proteins were visualized with an inverted fluorescence microscope (Olympus, BH-2) at 40× magnification and images captured using a digital camera (Roper Scientific, Photometrics).

CCC(=C/[C@H](C)C/C=C/C(C)=C/[C@@H](C)C(=O)[C@@H](C)[C@H](O)[C@@H](C)C/C(C)=C/C(=O)O)/C=C/[C@@H]1OC(=O)C=C[C@@H]1C [LMB, leptomycin B]
Cell size (cell volume, Coulter Counter) ([1]; LMB 18.5 nM (FIG. 5)): diminished cell size | ANF induction (secreted ANF in culture supernatants) ([2]; low nanomolar concentrations of LMB (FIG. 1)): efficiently blocked ANF induction | PE-induced β-MyHC protein expression ([3]; 48 hrs, LMB 18.5 nM (FIG. 3)): repressed | T3-mediated coordinate regulation of α- and β-MyHC protein expression ([3]; T3 (3 nM), 48 hours, LMB 18.5 nM (FIG. 7)): no significant effect | Adenylate kinase (AK) in culture medium [4]: did not increase AK | PE-induced downregulation of SERCA2 expression [5]: appeared to repress the modest downregulation | T3-induced SERCA2 protein expression ([5]; T3 (3 nM)): failed to alter | Agonist-induced increase in total cellular protein content ([6]; PE or FBS, 72 hrs (text; FIG. 4 legend 48 hours), LMB 18.5 nM): effectively blocked | Ethidium bromide staining (compromised membranes) ([7]; LMB-treated cells (Table 5)): not significantly stained by ethidium bromide | Calcein dye retention (viability) ([7]; LMB-treated cells vs control cells (Table 5)): retained calcein dye as effectively as control cells | Calcein Fluorescence ([7]; LMB 2.3 nM): + | Ethidium Fluorescence ([7]; LMB 2.3 nM): − | Calcein Fluorescence ([7]; LMB 4.6 nM): + | Ethidium Fluorescence ([7]; LMB 4.6 nM): − | Calcein Fluorescence ([7]; LMB 9.25 nM): + | Ethidium Fluorescence ([7]; LMB 9.25 nM): − | Calcein Fluorescence ([7]; LMB 18.5 nM): + | Ethidium Fluorescence ([7]; LMB 18.5 nM): − | PE-induced downregulation of α-MyHC transcripts [8]: inhibited the subtle downregulation | PE-induced β-MyHC mRNA expression [8]: repressed | PE-mediated induction of ANF mRNA transcripts [8]: effectively blocked | PE-mediated induction of α-skeletal actin (α-SK-actin) mRNA transcripts [8]: effectively blocked | ANF immunostaining ([9]; NRVM stimulated with PE or FBS, LMB present): markedly reduced | ANF expression induced by prostaglandin F2a and endothelin-1 ([9]; NRVM, immunofluorescence, LMB 18.5 nM (Table 3)): efficiently blocked ANF expression | Perinuclear ANF ([9]; NRVM, stimulus ET-1 (50 nM)): − | Perinuclear ANF ([9]; NRVM, stimulus FBS (5%)): − | Perinuclear ANF ([9]; NRVM, stimulus PE (20 μM)): − | Perinuclear ANF ([9]; NRVM, stimulus PGF2a (10 μM)): − | Organized Sarcomeres ([10]; stimulus FBS (5%)): − | Organized Sarcomeres ([10]; stimulus PE (20 μM)): −

Cc1ccc2[nH]c3c(c2c1)CCCC3NC(=O)CCl (stereo not drawn) [compound 5219668, 2-chloro-N-(6-methyl-2,3,4,9-tetrahydro-1H-carbazol-1-yl)acetamide]
Agonist-induced increase in cell size (cell volume) ([1]; PE (20 μM), 5219668 1.25 μM (FIG. 11)): effectively blocked the increases | ANF induction in response to PE (secreted ANF) ([2]; PE (20 μM), 5219668 1.25 μM (FIG. 9)): efficiently blocked ANF induction | Agonist-induced increase in protein synthesis (total cellular protein) ([6]; PE (20 μM), 48 hours, 5219668 1.25 μM (FIG. 10)): effectively blocked the increases
